Experimental data as given in PMC9101373, “Design of DNA Intercalators Based on 4-Carboranyl-1,8-Naphthalimides: Investigation of Their DNA-Binding Ability and Anticancer Activity” (International Journal of Molecular Sciences, 2022).
Read-outs that look alike come from different tables or passages of the source.

Legend:
HepG2 cells [1] = tested on: HepG2 cells; set-up: method as in PMID 31776032; details: read-out: IC50, compound concentration required to inhibit cell growth by 50%; cited from earlier work
calf thymus DNA (ct-DNA) [2] = tested on: calf thymus DNA (ct-DNA); set-up: method as in PMID 33803403; details: unmodified mitonafide and pinafide; cited from earlier work
human topoisomerase IIα = molecular target: T1, human topoisomerase IIα (Homo sapiens, UniProt P11388); assay: Human topoisomerase IIα relaxation assay; assay type: biochemical; details: for IC50: supercoiled pBR322, concentration range 0.1–100 µM, read-out: IC50, compound concentration required to inhibit the activity of this enzyme by 50%
T1 construct: purchased Inspiralis (Norwich, UK)
T1 sequence (P11388 whole entry): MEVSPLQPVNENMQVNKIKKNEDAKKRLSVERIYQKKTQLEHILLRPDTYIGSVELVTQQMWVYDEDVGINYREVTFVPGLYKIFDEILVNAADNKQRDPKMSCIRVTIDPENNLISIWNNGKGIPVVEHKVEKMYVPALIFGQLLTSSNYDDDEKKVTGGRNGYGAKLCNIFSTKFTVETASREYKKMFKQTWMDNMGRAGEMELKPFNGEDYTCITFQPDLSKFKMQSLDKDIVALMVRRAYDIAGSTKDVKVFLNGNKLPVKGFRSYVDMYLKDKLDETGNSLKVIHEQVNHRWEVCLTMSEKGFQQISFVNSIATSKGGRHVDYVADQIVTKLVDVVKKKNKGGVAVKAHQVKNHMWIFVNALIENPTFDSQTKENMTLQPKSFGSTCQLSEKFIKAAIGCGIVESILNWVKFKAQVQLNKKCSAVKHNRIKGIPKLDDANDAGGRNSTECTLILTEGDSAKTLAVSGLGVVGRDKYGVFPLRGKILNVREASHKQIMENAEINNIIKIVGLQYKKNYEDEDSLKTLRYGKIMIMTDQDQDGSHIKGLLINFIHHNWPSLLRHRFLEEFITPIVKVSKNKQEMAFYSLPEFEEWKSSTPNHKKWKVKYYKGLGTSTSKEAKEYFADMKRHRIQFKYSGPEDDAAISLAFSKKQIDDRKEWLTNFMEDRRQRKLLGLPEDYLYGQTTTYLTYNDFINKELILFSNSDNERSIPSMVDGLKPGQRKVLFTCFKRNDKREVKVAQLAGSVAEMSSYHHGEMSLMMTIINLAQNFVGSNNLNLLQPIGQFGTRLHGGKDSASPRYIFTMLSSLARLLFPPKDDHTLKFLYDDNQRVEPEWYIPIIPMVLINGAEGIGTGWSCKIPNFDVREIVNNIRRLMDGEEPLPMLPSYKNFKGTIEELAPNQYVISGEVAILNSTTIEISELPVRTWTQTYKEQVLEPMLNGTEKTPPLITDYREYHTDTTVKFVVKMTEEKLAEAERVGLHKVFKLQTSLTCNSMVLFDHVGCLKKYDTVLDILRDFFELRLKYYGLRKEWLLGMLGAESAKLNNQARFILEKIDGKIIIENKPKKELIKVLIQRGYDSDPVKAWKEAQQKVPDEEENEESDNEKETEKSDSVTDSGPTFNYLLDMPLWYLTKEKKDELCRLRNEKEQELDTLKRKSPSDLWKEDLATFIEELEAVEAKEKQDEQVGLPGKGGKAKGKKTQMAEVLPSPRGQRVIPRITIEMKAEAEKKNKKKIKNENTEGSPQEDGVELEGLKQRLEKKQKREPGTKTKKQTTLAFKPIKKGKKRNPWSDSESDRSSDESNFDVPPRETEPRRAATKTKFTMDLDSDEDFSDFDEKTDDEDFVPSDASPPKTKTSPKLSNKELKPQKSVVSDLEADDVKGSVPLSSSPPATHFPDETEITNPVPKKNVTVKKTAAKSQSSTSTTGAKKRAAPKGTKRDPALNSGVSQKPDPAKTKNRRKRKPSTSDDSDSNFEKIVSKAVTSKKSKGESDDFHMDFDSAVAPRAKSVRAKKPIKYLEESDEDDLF
Description: Therefore, we subjected these compounds to further detailed analyses of inhibitory potential within the concentration range of 0.1–100 µM (Figure S301, ESI) to calculate IC50 values. IC50 refers to the compound concentration (µM) required to inhibit the activity of the topoisomerase enzyme by 50%.
The Human Topoisomerase II-alpha Relaxation Assay Kit was purchased from Inspiralis (Norwich, UK). The Topo IIα inhibition assay was performed as described by the manufacturer. […] Next, TopoIIα (1 U) was added, and the reaction mixture was incubated at 37 °C for an additional 45 min. The reaction was terminated by addition of the STEB buffer (40 % (w/v) sucrose, Tris-HCl (100 mM, pH 8), EDTA (1 mM), bromophenol blue (0.5 mg/mL)). The products were analyzed by electrophoresis using agarose gel (1%) in TAE buffer at 70 V for 2 h, followed by ethidium bromide staining. […] The percentage of Topo-II alpha activity inhibition was calculated by densitometric quantification (Quantity One software, Bio-Rad). The occurrence of a band representing supercoiled DNA on an agarose gel indicated the inhibition of enzyme activity.

HepG2 cells [3] = tested on: HepG2 cells; set-up: method as in PMID 31776032; details: cited from earlier work
calf thymus DNA (ct-DNA) [4] = assay: Melting temperature (Tm) measurements of ct-DNA, thermal denaturation; assay type: binding; details: for ΔTm ct-DNA: r = [compound]/[ct-DNA] = 0.3, pH 7.0, 20 mM cacodylate buffer, Tm of ct-DNA alone 74 °C; for effect on thermal stability of ct-DNA (in words): thermal melting experiments
Description: The melting temperature (Tm) of DNA is defined as the temperature at which 50% of the DNA is in form of single strands forming randomly coiled structures. DNA melting is measured by the absorbance of UV light (260 nm) by the DNA solution, where the amount of UV light absorbed is proportional to the fraction of non-bonded base pairs. The majority of DNA-binding small molecules known thus far stabilize duplex DNA against heat denaturation. A high, drug-induced increase in the Tm of DNA is generally viewed as an excellent criterion to select DNA ligands and is a common feature of several anticancer drugs such as intercalators (a significant increase in Tm = 3–8 °C is observed for strong intercalation) and alkylators. The reverse situation (destabilization of DNA to facilitate its denaturation) may be an attractive option to identify therapeutic agents acting on the DNA structure.
Our study conducted Tm measurement to estimate the impact of 1,8-naphthalimides bearing the carborane cluster on DNA stabilization (Table 1, Figures S249–S253, ESI).
The measurements were performed by adding aliquots of DMSO stock solution of the tested compounds to the buffer solution (pH 7.0, 20 mM, cacodylate buffer, DMSO content of the final solution = 0.24–0.36%). The Tm curves were collected at r = 0.3 (r = [compound]/[ct-DNA]) to assure the dominant binding mode. Thermal melting curves were determined by following the absorption change at 260 nm as a function of temperature by using a GBC Cintra10 UV–vis spectrometer (Dandenong, Australia) equipped with a GBC Thermocell Peltier Power Supply (Dandenong, Australia) using a 1 cm path length cell. The absorbance of the samples was monitored at 260 nm from 30 to 90 °C (95 °C for compounds 54–61) with a heating rate of 1 °C/min. Tm values are the midpoints or the transition curves determined from the maximum of the first derivative. The ΔTm values were calculated by subtracting the Tm of the free nucleic acid from the Tm of the sample. Every Tm value reported in this study was average at least three measurements. The error in Tm was 0.5 °C.

HepG2 cells [5] = assay: In vitro cytotoxic activity, MTT assay; assay type: cell-based, human; details: 24 h treatment, read-out: IC50, compound concentration required to inhibit cell growth by 50%
Description: The obtained 1,8-naphthalimide–carborane conjugates were investigated for their in vitro antitumor activity by examining their cytotoxic effects using the MTT tetrazolium dye assay against the human cancer cell line HepG2 established from hepatocellular carcinoma. IC50 refers to the drug concentration (µM) required to inhibit cell growth by 50%.
The cytotoxic properties of the synthesized compounds were evaluated using the human hepatocellular carcinoma cell line HepG2 established from hepatocellular carcinoma. The HepG2 cell line was purchased from ECACC (Salisbury, UK). Cells were grown in EMEM medium (Corning®) supplemented with 10% heat-inactivated fetal bovine serum (FBS) (Corning®) and antibiotics (Corning®), at 37 °C in a 5% CO2 atmosphere. Upon reaching 80–90% confluency, cells were detached with the trypsin (Corning®) and transferred into 96-well microplates at a density of 12 × 10^3. After overnight incubation at 37 °C in a humidified atmosphere containing 5% CO2, the cells were treated for the next 24 h with compounds. The stock solution of each compound was prepared in DMSO at 10 mM. The cytotoxicity was evaluated by the MTT assay. […] Subsequently, the medium was aspirated and replaced with 3-(4,5-dimethylthiazol-2-yl)-2,5-diphenyltetrazolium bromide (MTT) dye solution (50 µL, 0.5 mg/mL). After 3 h incubation, the resulting MTT formazan crystals were dissolved in DMSO (100 µL). To ensure the complete dissolution of formazan, the plates were shaken on an orbital microplate shaker at 1000 rpm for 15 min (Thermoshaker NeoLab 7–0055, Bionovo, Legnica, Poland). The optical density of each well was then measured on a VICTOR Nivo multimode plate reader at a wavelength of 570 nm. Each experiment consisted of 6 replications of each concentration, and each experiment was repeated three times independently. The results were calculated as a percentage of control group viability. The IC50 values were determined using a non-linear regression from the plot of % viability against log dose of compounds by using GraphPad Prism 6.0 software (GraphPad, San Diego, CA, USA).

calf thymus DNA (ct-DNA) [6] = assay: UV–vis absorption titration with ct-DNA, binding constant Kb; details: 10 µM compound, ct-DNA 1.25–15 µM
Excerpt: The interaction of 1,8-naphthalimides bearing carborane clusters with ct-DNA was also studied by UV–vis absorption titration to better understand the mode of interaction and binding strength. For compounds interacting with DNA by intercalation, bathochromic and hypochromic effects are observed in the absorption spectra. The spectral changes observed in the electronic absorption of 6–11, 16–19, 36–43, and 54–61 in the absence and presence of ct-DNA are illustrated in Figures S271–S296 (ESI). Progressive addition of ct-DNA at the concentration of 1.25–15 µM to a fixed amount of modified naphthalic anhydride or naphthalimide (10 µM concentration) decreased absorbance for almost all the tested modified conjugates, except conjugates 14, 15, and 22–27 for which changes in absorbance were not observed. […] Hypochromicity (10–56%) was also observed for all conjugates, with the highest value for compound 40.
To compare the DNA-binding strength of the tested conjugates, we calculated the binding constant Kb, as described in the Materials and Methods section. […] For conjugates 14, 15, and 22–27, the Kb value could not be determined due to the lack of noticeable changes in the UV spectra.
The measurements were performed by adding aliquots of DMSO stock solution of the tested compounds to the buffer solution (pH 7.4, 20 mM, 50 mM NaCl, Tris-HCl buffer, DMSO content of the final solutions = 0.40–0.61%) to the final concentration of 10 µM. The tested compounds were incubated 5 min, with increasing concentrations ranging from 0 to 15 µM of ct-DNA at 37 °C, then the UV–vis absorption spectra, between 310 and 500 nm (310–550 nm for compounds 36–43 and 54–61), were recorded using a GBC Cintra10 UV–vis spectrometer (Dandenong, Australia) equipped with a GBC Thermocell Peltier Power Supply (Dandenong, Australia) using a 1 cm path length cell. The binding constant was calculated according to the following equation [53]: A0/A−A0=εG/εH−G−εG +εG/εH−G−εG ×1/Kb[DNA] where Kb is the binding constant, A0 and A are the absorbance of the free tested compound, and the apparent one, εG and εH−G are their coefficient, respectively, and [DNA] is the concentration of [DNA] in the base pair. The slope to intercept ratio of the plot between A0/A − A0 versus 1/[DNA] yielded the binding constant.

Compound	IC50 (human topoisomerase IIα)	ΔTm ct-DNA (calf thymus DNA (ct-DNA) [4])	effect on thermal stability of ct-DNA (in words) (calf thymus DNA (ct-DNA) [4])	IC50 (HepG2 cells [5])	other results
O=C1c2cccc3cc([N+](=O)[O-])cc(c23)C(=O)N1CCN1CCCC1 [Pinafide, pinafide]	–	–	–	–	IC50 (HepG2 cells [1]): 1.23 µM; ΔTm ct-DNA (calf thymus DNA (ct-DNA) [2]): 6.50 °C
CN(C)CCN1C(=O)c2cccc3cc([N+](=O)[O-])cc(c23)C1=O [Mitonafide, mitonafide]	5.13 µM	–	–	–	8-oxo-dG level in cellular DNA (HepG2 cells [3]): Mitonafide—28.24 ± 0.18 per 10^6 dG [8].; IC50 (HepG2 cells [1]): < 1 µM; ΔTm ct-DNA (calf thymus DNA (ct-DNA) [2]): 5.17 °C
N-[2-(Dimethylamino)ethyl]-4-[(2-(3-(1,2-dicarba-closo-dodecaborane-1-yl)propanamido)ethyl)amino]-1,8-naphthalimide [Compound 36]	7.72 µM	1.33 °C	better DNA stabilization	6.03 ± 0.91 µM	–
4-{1-[3-(1,2-Dicarba-closo-dodecaborane-1-yl)propyl]-1H-1,2,3-triazol-4-yl}-1,8-naphthalic anhydride [Compound 6]	7.73 µM	−0.33 °C	destabilization	71.2 ± 1.78 µM	–
4-{1-[3-(1,7-Dicarba-closo-dodecaborane-1-yl)propyl]-1H-1,2,3-triazol-4-yl}methoxy-1,8-naphthalic anhydride [Compound 15]	61.6 µM	0.00 °C	–	38.1 ± 2.85 µM	fold less active than mitonafide (Topo IIα IC50) (human topoisomerase IIα): 12 fold
N-[2-(Dimethylamino)ethyl]-4-{1-[3-(1,2-dicarba-closo-dodecaborane-1-yl)propyl]-1H-1,2,3-triazol-4-yl}-1,8-naphthalimide [Compound 8]	0.58 µM	0.33 °C	–	9.65 ± 1.02 µM	–
4-{1-[3-(1,7-Dicarba-closo-dodecaborane-1-yl)propyl]-1H-1,2,3-triazol-4-yl}-1,8-naphthalic anhydride [Compound 7]	8.78 µM	0.00 °C	–	136 ± 4.24 µM	–
N-[2-(Dimethylamino)ethyl]-4-[(2-(3-(1,7-dicarba-closo-dodecaborane-1-yl)propanamido)ethyl)amino]-1,8-naphthalimide [Compound 37]	7.49 µM	2.00 °C	better DNA stabilization	10.5 ± 0.53 µM	–
N-[2-(N-Pyrrolidinyl)ethyl]-4-{1-[3-(1,7-dicarba-closo-dodecaborane-1-yl)propyl]-1H-1,2,3-triazol-4-yl}methoxy-1,8-naphthalimide [Compound 19]	–	0.67 °C	–	15 ± 0.57 µM	bathochromic shift (calf thymus DNA (ct-DNA) [6]): 1–2 nm
N-[2-(N-Pyrrolidinyl)ethyl]-4-{1-[3-(1,7-dicarba-closo-dodecaborane-1-yl)propyl]-1H-1,2,3-triazol-4-yl}-1,8-naphthalimide [Compound 11]	–	0.33 °C	–	14.6 ± 0.43 µM	bathochromic shift (calf thymus DNA (ct-DNA) [6]): 1–2 nm
N-[2-(Dimethylamino)ethyl]-4-[(6-(3-(1,7-dicarba-closo-dodecaborane-1-yl)propanamido)hexyl)amino]-1,8-naphthalimide [Compound 41]	–	−1.33 °C	destabilization	11.9 ± 0.92 µM	–
N-[2-(N-Pyrrolidinyl)ethyl]-4-[(2-(3-(1,2-dicarba-closo-dodecaborane-1-yl)propanamido)ethyl)amino]-1,8-naphthalimide [Compound 38]	2.81 µM	1.00 °C	–	10.1 ± 1.85 µM	fold less active than compound 8 (Topo IIα IC50) (human topoisomerase IIα): ~5 fold
N-[2-(N-Pyrrolidinyl)ethyl]-4-{1-[3-(1,2-dicarba-closo-dodecaborane-1-yl)propyl]-1H-1,2,3-triazol-4-yl}methoxy-1,8-naphthalimide [Compound 17]	–	0.67 °C	–	36.9 ± 3.72 µM	bathochromic shift (calf thymus DNA (ct-DNA) [6]): 1–2 nm
